Results reported in patent US20120016011A1, “RNA Interference Mediated Inhibition of Connective Tissue Growth Factor (CTGF) Gene Expression Using Short Interfering Nucleic Acid (siNA)” (Merck Sharp & Dohme Corp., priority 2009, published 2012).
[invAb] = inverted abasic unit; m = 2'-O-methyl; r = 2'-OH (RNA); f = 2'-fluoro

Tests used:
CTGF mRNA = CTGF mRNA knockdown (Taqman RT-PCR) after siNA transfection of mouse NIH 3T3 cells; format: cell-based; details: mouse NIH3T3 cells, 10 nM siNA, 24 hrs, average of 3 experiments, vs non-targeting control
Outline: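 Mouse NIH 3T3 cells, 5000/well, transfected 24 h after plating with siNA at 10 nM final using RNAiMax, 24 h exposure without media change. CTGF mRNA by TaqMan RT-qPCR with GAPDH, knockdown via comparative Ct (2^−ΔΔCt) against non-targeting control siNA.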

CTGF protein = experiment: CTGF Western Blot in siNA-transfected NHLF cells (6-well plate); format: cell-based, human; details: for Mean % KD (30 nM, 72 h) n = 5: CTGF protein; for Mean % KD (30 nM, 72 h) n = 5 / Density (CTGF)/Density (α-Tubulin) (3 pM, 72 hours) / Density (CTGF)/Density (α-Tubulin) (300 pM, 72 hours) / Density (CTGF)/Density (α-Tubulin) (30 nM, 72 hours): NHLF cells; for Density (CTGF)/Density (α-Tubulin) (3 pM, 72 hours) / Density (CTGF)/Density (α-Tubulin) (300 pM, 72 hours): n = 3, ratio ± S.D.; for Density (CTGF)/Density (α-Tubulin) (30 nM, 72 hours): n = 5, ratio ± S.D.; for % Protein Reduction at 30 nM (72 hrs): human NHLF cells, mean ± S.D.
Description: NHLF cells were plated in 6-well plates at final counts of 70,000 cells/well in 2 ml of complete growth media. Transfection was performed using 2.5 uL of RNAiMax per well. Final concentration of siNAs was 30 nM (screen) and 30, 0.3, and 0.003 nM (dose response study). Protein lysates were harvested 24, 48, and 72 hours post-transfection (screen) and 72 hours post-transfection (dose response study). Protein lysates were prepared using Cell Extraction Buffer (Invitrogen, cat# FNN0011) according to manufacturer's instructions. Protein concentration was measured using a Bradford Quick Start Kit (Bio-Rad, cat# 500-0205).
The protein source for the Western Blot experiments were from transfection of NHLF cells in a 6 well plate, as described above.
Protein samples were diluted 1:1 in 2× Laemmli buffer with 5% β-mercapto-ethanol and incubated at 95° C. for 5 minutes. 40-50 ug of protein was loaded in each lane of 10% Tris-HCl gel. One lane was designated for MagicMark Protein Standard (Invitrogen # LC5602). The gel was run at 100V for approximately 2 hours. Protein was transferred to a PVDF membrane at 100V for 60 minutes. Once the transfer was finished, the membrane was blocked in 1% Casein in PBS (BioRad Cat#161-0783) for 1 hour on a plate rocker at room temperature followed by the overnight incubation at 4° C. with goat […] anti-CTGF primary antibody (Santa Cruz Biotechnology, cat# L-20) diluted 1:200 in 1% Casein in PBS. On the next day, the blot was washed 4×5 minutes in PBST (0.1% Tween-20 in PBS) solution and incubated for 30 minutes at room temperature with rabbit anti-goat secondary antibody (Pierce Biotechnology, cat# 31402) diluted 1:1,000 in 1% Casein in PBS. Then, the blot was washed 4×5 minutes with PBST and incubated for 1 minute with ECL Western Blotting Substrate (Pierce Biotechnology, Cat# 32106). The bands were visualized on the Bio-Rad VersaDoc Imager.
The protein bands were quantified by computing their density which is defined by the ratio between the total intensity of all pixels and the area of the rectangle drawn around each band (intensity/mm^2). The density was calculated by the BioRad software.
The level of protein was quantified using the Bio-Rad VersaDoc Imager according to the protocols of that piece of equipment. A pixel count was performed in each lane using an area of identical size. Each sample was then compared to the appropriate control treated sample and converted to a percent of protein remaining compared to control.
The effects of lead siNAs on CTGF protein level were compared to the effects of the universal control using a two tail Student's T-test to obtain a P value. P<0.05 was considered significant.
The densities of CTGF bands were normalized to the respective densities of α-Tubulin by calculating the ratio of the density of CTGF band and the density of α-Tubulin band. The ratios of the treatments were then compared to the ratio of the control group using an unpaired t-test with unequal variances.

48055-DC: siNA duplex; sense SEQ ID NO: 75 B cAAGuuAuuuAAAucuGuu TTB; antisense SEQ ID NO: 76 AACAGAuuuAAAuAAcuuGUU (sense CAAGUUAUUUAAAUCUGUUTT; antisense AACAGAUUUAAAUAACUUGUU; sense: DNA at AGT, 2'-fluoro at CU, [invAb] at 5' end, 3' end, backbone not given here; antisense: sugars from the 5' end rrrmmmfffmmmfmmfffmmm, backbone not given here)
% KD Mouse (CTGF mRNA): 24 ± 2% | Mean % KD (30 nM, 72 h) n = 5 (CTGF protein): 84 ± 5% | Density (CTGF)/Density (α-Tubulin) (3 pM, 72 hours) (CTGF protein): 0.28 ± 0.04 | Density (CTGF)/Density (α-Tubulin) (300 pM, 72 hours) (CTGF protein): 0.10 ± 0.06 | Density (CTGF)/Density (α-Tubulin) (30 nM, 72 hours) (CTGF protein): 0.09 ± 0.04 | % Protein Reduction at 30 nM (72 hrs) (CTGF protein): 84 ± 5%

48042-DC: siNA duplex; sense SEQ ID NO: 49 B GAcAuuAAcucAuuAGAcu TTB; antisense SEQ ID NO: 50 AGUcuAAuGAGuuAAuGucUU (sense GACAUUAACUCAUUAGACUTT; antisense AGUCUAAUGAGUUAAUGUCUU; sense: DNA at AGT, 2'-fluoro at CU, [invAb] at 5' end, 3' end, backbone not given here; antisense: sugars from the 5' end rrrffmmfmmmffmmfmffmm, backbone not given here)
% KD Mouse (CTGF mRNA): 30 ± 4% | Mean % KD (30 nM, 72 h) n = 5 (CTGF protein): 86 ± 13% | Density (CTGF)/Density (α-Tubulin) (3 pM, 72 hours) (CTGF protein): 0.45 ± 0.13 | Density (CTGF)/Density (α-Tubulin) (300 pM, 72 hours) (CTGF protein): 0.11 ± 0.06 | Density (CTGF)/Density (α-Tubulin) (30 nM, 72 hours) (CTGF protein): 0.09 ± 0.11 | % Protein Reduction at 30 nM (72 hrs) (CTGF protein): 86 ± 13%

48048-DC: siNA duplex; sense SEQ ID NO: 61 B GAuAGcAucuuAuAcGAGu TTB; antisense SEQ ID NO: 62 ACUcGuAuAAGAuGcuAucUU (sense GAUAGCAUCUUAUACGAGUTT; antisense ACUCGUAUAAGAUGCUAUCUU; sense: DNA at AGT, 2'-fluoro at CU, [invAb] at 5' end, 3' end, backbone not given here; antisense: sugars from the 5' end rrrfmfmfmmmmfmffmffmm, backbone not given here)
% KD Mouse (CTGF mRNA): 21 ± 5% | Mean % KD (30 nM, 72 h) n = 5 (CTGF protein): 83 ± 10% | Density (CTGF)/Density (α-Tubulin) (3 pM, 72 hours) (CTGF protein): 0.31 ± 0.2 | Density (CTGF)/Density (α-Tubulin) (300 pM, 72 hours) (CTGF protein): 0.09 ± 0.06 | Density (CTGF)/Density (α-Tubulin) (30 nM, 72 hours) (CTGF protein): 0.10 ± 0.10 | % Protein Reduction at 30 nM (72 hrs) (CTGF protein): 83 ± 10%

48046-DC: siNA duplex; sense SEQ ID NO: 57 B cAcAGcAccAGAAuGuAuA TTB; antisense SEQ ID NO: 58 UAUAcAuucuGGuGcuGuGUU (sense CACAGCACCAGAAUGUAUATT; antisense UAUACAUUCUGGUGCUGUGUU; sense: DNA at AGT, 2'-fluoro at CU, [invAb] at 5' end, 3' end, backbone not given here; antisense: sugars from the 5' end rrrmfmffffmmfmffmfmmm, backbone not given here)
% KD Mouse (CTGF mRNA): 19 ± 3% | Mean % KD (30 nM, 72 h) n = 5 (CTGF protein): 82 ± 11% | Density (CTGF)/Density (α-Tubulin) (3 pM, 72 hours) (CTGF protein): 0.56 ± 0.3 | Density (CTGF)/Density (α-Tubulin) (300 pM, 72 hours) (CTGF protein): 0.13 ± 0.08 | Density (CTGF)/Density (α-Tubulin) (30 nM, 72 hours) (CTGF protein): 0.11 ± 0.10 | % Protein Reduction at 30 nM (72 hrs) (CTGF protein): 82 ± 11%

48047-DC: siNA duplex; sense SEQ ID NO: 59 B cGAGuAAuAuGccuGcuAu TTB; antisense SEQ ID NO: 60 AUAGcAGGcAuAuuAcucGUU (sense CGAGUAAUAUGCCUGCUAUTT; antisense AUAGCAGGCAUAUUACUCGUU; sense: DNA at AGT, 2'-fluoro at CU, [invAb] at 5' end, 3' end, backbone not given here; antisense: sugars from the 5' end rrrmfmmmfmfmffmfffmmm, backbone not given here)
% KD Mouse (CTGF mRNA): 18 ± 3% | Mean % KD (30 nM, 72 h) n = 5 (CTGF protein): 58 ± 26% | Density (CTGF)/Density (α-Tubulin) (3 pM, 72 hours) (CTGF protein): 0.51 ± 0.4 | Density (CTGF)/Density (α-Tubulin) (300 pM, 72 hours) (CTGF protein): 0.17 ± 0.1 | Density (CTGF)/Density (α-Tubulin) (30 nM, 72 hours) (CTGF protein): 0.22 ± 0.13 | % Protein Reduction at 30 nM (72 hrs) (CTGF protein): 58 ± 26%
